Here are results for one compound from patent EP4792833A1, “CLEAVABLE LINKER COMPOUND FOR PRODRUG DELIVERY SYSTEM, AND PREPARATION AND USE THEREOF” (East China Normal University, priority 2023, dated 2025).

One data set addresses T1, β-glucuronidase (Homo sapiens, UniProt P08236).
T1 sequence (P08236 23-651): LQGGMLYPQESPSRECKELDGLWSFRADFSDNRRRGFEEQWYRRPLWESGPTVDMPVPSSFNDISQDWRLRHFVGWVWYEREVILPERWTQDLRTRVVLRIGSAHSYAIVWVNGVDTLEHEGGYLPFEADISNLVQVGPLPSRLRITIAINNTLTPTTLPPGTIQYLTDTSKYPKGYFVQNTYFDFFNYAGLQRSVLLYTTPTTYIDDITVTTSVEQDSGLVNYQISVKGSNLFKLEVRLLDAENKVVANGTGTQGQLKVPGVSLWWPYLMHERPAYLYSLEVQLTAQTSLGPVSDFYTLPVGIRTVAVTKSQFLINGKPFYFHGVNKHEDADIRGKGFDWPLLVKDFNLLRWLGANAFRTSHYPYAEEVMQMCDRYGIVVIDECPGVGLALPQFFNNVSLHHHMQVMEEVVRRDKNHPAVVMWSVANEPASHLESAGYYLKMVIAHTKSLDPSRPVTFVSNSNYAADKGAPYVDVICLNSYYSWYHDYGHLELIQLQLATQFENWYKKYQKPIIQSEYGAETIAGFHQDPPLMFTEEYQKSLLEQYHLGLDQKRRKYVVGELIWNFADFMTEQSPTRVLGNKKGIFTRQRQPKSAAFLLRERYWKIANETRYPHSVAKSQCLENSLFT
In words: Enzyme release assay with β-glucuronidase (SN38 by HPLC). Type of data set: biochemical. As to conditions: for release of SN38 triggered by β-glucuronidase: β-glucuronidase 300 U, 37 °C, within 45 min. The protocol:
Compound (J1-1) solution (100 µM, pH 7.4 or pH 5.5) prepared in Example 1 of the present invention was mixed with β-glucuronidase (300 U) and incubated in a shaker at 37 °C. Corresponding samples (n=3) were taken at 1 min, 2 min, 5 min, 10 min, 20 min, 45 min, 60 min, and 90 min, precipitated with cold acetonitrile, centrifuged at 4 °C for 15 min, and the supernatant was collected. The content of SN38 was determined by HPLC.

The nature of data set [1]: Stability test in PBS and mouse plasma (HPLC). The data set is classed as in vitro ADME. The protocol:
The PBS solution (1 mM, pH 7.4) of Compound (J1-1) prepared in Example 1 of the present invention was incubated at 37 °C. Corresponding samples (n=3) were taken on Day 1, Day 2, Day 3, Day 5, and Day 7, and the contents of (J1-1) and SN38 were determined by HPLC.
Mouse plasma stability: 40 µL of the PBS solution (1 mM, pH 7.4) of Compound (J1-1) prepared in Example 1 of the present invention was mixed with 360 µL of mouse plasma and incubated in a shaker at 37 °C. Corresponding samples (n=3) were taken on Day 1, Day 2, Day 3, Day 5, and Day 7, precipitated with cold acetonitrile, centrifuged at 4 °C for 30 min, and the supernatant was collected. The content of SN38 was determined by HPLC.

Data set [2] has as its system HCT116, A549, MCF-7, HepG2, and 4T1 cells. The experiment in a line: In vitro drug cytotoxicity assay (MTT) with or without β-glucuronidase. Type of data set: cell-based. Particulars: 72 h. The protocol: The in vitro cytotoxicity of Compound (J1-1) prepared in Example 1 of the present invention against HCT116, A549, MCF-7, HepG2, and 4T1 cells, as well as that in the presence of β-glucuronidase, was determined by MTT assay. A total of 200 µL of culture medium containing 4000 cells was seeded into each well of a 96-well plate. After incubation for adherence for 24 h in an incubator (37 °C, 5% CO2), the culture medium was removed, and 200 µL of drug solutions at various concentrations with or without β-glucuronidase supplementation was added, followed by incubation for 72 h. The medium was removed, 100 µL of MTT solution (0.5 mg/mL) was added to each well, and the plate was incubated for 3 h. Subsequently, 100 µL of triple solution was added to each well, and the plate was incubated for 12 h. The absorbance (OD) at 570 nm was measured using a microplate reader. Cell viability was calculated according to the following formula: Cell viability % = (ODsample −ODblank)/(ODcontrol −ODblank) × 100% [formula]
ODsampleis the absorbance of the drug-treated group, ODblank is the absorbance of complete medium alone, ODcontrol is the absorbance of the cell-seeded group without drug treatment.

For data set [3], the system named is HCT116 cell xenograft tumor model. The experiment in a line: Antitumor effect in HCT116 xenograft nude mice. Type of data set: in vivo, BALB/c nude mice. How it is done: Female BALB/c nude mice (4 weeks old) were selected and acclimated for three days in a barrier facility. HCT116 cells (5×10^6) were subcutaneously inoculated into the right flank of nude mice. When tumors grew to 80-100 mm^3, tumor-bearing nude mice were randomly divided into four groups with six mice per group. Normal saline (blank group), 30 mg/kg of (J1-1), and 60 mg/kg of Compound (J1-1) prepared in Example 1 of the present invention (supplementary treatment group) were administered intravenously via the tail vein, respectively. Administration was performed twice a week for a total of five times. Body weight and tumor volume of nude mice were observed and recorded.

Turning to `CCc1c2c(nc3ccc(OC(=O)N(C)c4cc([N+](=O)[O-])ccc4OCc4ccc(O[C@@H]5O[C@H](C(=O)O)[C@@H](O)[C@H](O)[C@H]5O)c(NC(=O)CCNC(=O)CCCCCN5C(=O)C=CC5=O)c4)cc13)-c1cc3c(c(=O)n1C2)COC(=O)[C@]3(O)CC` [Compound J1-1], at β-glucuronidase (conditions simulating the tumor microenvironment, summary statement), the “release of the active drug” value is “can rapidly release the active drug”. In addition, the “release of SN38 triggered by β-glucuronidase” value at β-glucuronidase (pH 5.5, 100 µM) is on record as 100%; on β-glucuronidase (pH 7.4, 100 µM), 100%. For the same compound, in data set [1] (mouse plasma with PBS at pH 7.4, 37 °C, within seven days), the “release of SN38” value is on record as “less than 2%”. Moreover, the “in vitro and in vivo stability” value in data set [1] (summary statement) is on record as “excellent”. Also, the “in vitro cytotoxicity in the presence of β-glucuronidase” value in data set [2] (with β-glucuronidase) is given as “could release the active drug upon β-glucuronidase triggering, thereby achieving the purpose of killing tumor cells”. Also, the in vitro cytotoxicity entry in data set [2] (without β-glucuronidase) is “low cytotoxicity”. Moreover, the tumor volume result in data set [3] (30 mg/kg and 60 mg/kg intravenously via tail vein, twice a week, five administrations) was “significantly reduced or even eliminated”. In data set [3] (HCT116 xenograft mouse model, summary statement), the survival period result was “significantly prolonged”.
